Reference: patent US7098307B2, “Neo-tryptophan” (Mayo Foundation for Medical Education and Research, priority 1998, dated 2006)
Several values for one entry are separate records, joined by “and”; a condition that tells them apart may be missing. Identical values can stand only once. Square brackets hold non-standard residues; d marks the D form. Peptide text beside a SMILES is read from it. Ala(indol-4-yl) = N[C@@H](Cc1cccc2[nH]ccc12)C(=O)O; NMeR = CN[C@@H](CCCNC(=N)N)C(=O)O; Tle = CC(C)(C)[C@H](N)C(=O)O

Columns and labels:
rat NTR1 = molecular target: T1, rat NTR1 (Rattus norvegicus, UniProt P20789); assay: PI turnover ([3H]IP1) in intact CHO-K1 cells, rat NTR1; assay type: cell-based
T1 construct: expressed in transfected cells; host or cells: CHO-K1
Procedure: To measure PI turnover, intact CHO-K1 cells were harvested at about 80% confluency. Cells were detached from the petri plates by removal of culture medium followed by incubation of the cellular monolayer for 20 minutes at 37° C. with gentle shaking in a modified Puck's D1 solution containing 2 mM EGTA. […] Briefly, intact CHO cells were prelabeled with D-myo-[^3H]inositol (18.3 Ci/mmol) in the presence of lithium chloride (final concentration, 10 mM). […] For the experiments described herein, the stimulation time was 30 minutes, and the number of CHO cells per assay tube was 1.5×10^5.

[1] = Degradation in human plasma (HPLC peak area); assay type: in vitro ADME; settings: human; 25% plasma, 37° C., 0.5 mg/mL polypeptide; read-out: half-time, Plasma Human (converted)
Source text: (§1) For the degradation studies, data were plotted in linear form as a semi-log plot with SigmaPlot for Windows Version 4.00. Linear regression on these plots provided the parameters used to calculate the half-time (t1/2) for degradation of each polypeptide. The correlation coefficient (R) for the linear regression was taken as a measure of the goodness-of-fit.

[2] = Degradation in rat intestinal preparation; assay type: in vitro ADME; settings: pH 7.4, 37° C., read-out: half-time, Rat Intestinal Preparation (converted)
Procedure: For intestinal preparations, rats were sacrificed by decapitation, and the small intestines removed. The tissue was washed with ice-cold PBS (10 mM, pH 7.4). About […] of intestinal tissue was added to about 10 mL of PBS and homogenized using a Brinkman polytron homogenizer (setting 6). After homogenization, 10 mL of PBS was added to 10 mL of the intestinal homogenate. […] The supernatant was removed and stored at −20° C. until testing. Immediately before incubation with the polypeptide, the intestinal preparation was filtered through a 0.2 μm filter. Testing procedures were similar to those for the plasma tests.
as §1

α2-adrenergic receptors = assay: Radiolabeled competitive binding, human brain tissue, adrenergic α2
[3] = Apomorphine-induced climbing, sniffing and licking behavior in rats; assay type: in vivo, rat
Procedure: Apomorphine was used to assess the ability of NT analogs to act as neuroleptics. Briefly, male Sprague-Dawley rats were pretreated intraperitoneally with either NT69L or saline only. Thirty minutes following pretreatment, the rats received a subcutaneous injection of apomorphine (600 μg/kg). Occasionally, the effectiveness of NT69L was assessed by measuring antinociception and hypothermia just prior to apomorphine administration. Control animals included rats receiving NT69L followed by saline only, and rats receiving no treatment. The apomorphine was dissolved in oxygen-free boiled 0.9% NaCl solution containing 0.1% ascorbic acid and 0.1% metabisulfite to prevent oxidation. The volume of injection was 1 mL/kg under the loose skin at the back of the animal's neck. Inunediately following injection, the rats were placed in cages for observation. About 5–10 minutes later, behavioral monitoring was initiated and lasted for one hour. Climbing episodes were measured by observing the number of times the rat moved up and down in a vertical position during a two minute observation period. Statistical analysis was done using the Student's t-test with P<0.05 being considered significant. Graphs and ED50 data were generated using GraphPad Prism® software (version 2.01, GraphPad Software, Inc., San Diego, Calif.).

[4] = Catalepsy (fixed rearing posture) in mice; assay type: in vivo; settings: 5 mg/kg ip
Procedure: The following experiments were performed to assess the ability of NT69L to cause and influence catalepsy. Male Sprague-Dawley rats (150–250 g) or CD-1 mice (24–26 g) were housed in a temperature-controlled room in groups of five with free access to food and water. The animals were kept on a 12 hour light/dark cycle, and all tests were performed during the light cycle. The test for catalepsy is well established and quite simple (Munkvad et al., Brain Behav. Evol. 1:89–100(1968)). […] Thirty minutes after injection, the animals were tested for catalepsy. For rats, the test involved simply placing the animal's fore paws on a suspended metal bar 10 mm in diameter, 11 cm above the counter. The time elapsed until the animal's fore paws touch the counter was recorded. […] For mice, catalepsy was scored based on the time that the mice maintained a fixed rearing posture against the side of the cage (Adams et al., Proc. Natl. Acad. Sci. USA 94:12157–12161 (1997)). The cut-off time was 20 seconds, and each animal was tested three times for each time point.

[5] = Blood glucose and hormone levels in rats; assay type: in vivo, rat; settings: 1 mg/kg ip
[6] = Body temperature (hypothermia) in rats; settings: for change in body temperature: 5 mg/kg ip
[7] = 1 mg/kg ip, 30 minutes before apomorphine

In the case of CN[C@@H](CCCNC(=N)N)C(=O)N[C@@H](CCCCN)C(=O)N1CCC[C@H]1C(=O)N[C@@H](Cc1cccc2[nH]ccc12)C(=O)N[C@H](C(=O)N[C@@H](CC(C)C)C(=O)O)C(C)(C)C [NT69L] (H-[NMeR]KP[Ala(indol-4-yl)][Tle]L-OH; N-terminus and C-terminus assumed), the EC50 (rat NTR1) is reported as 0.00134 ± 2e-05 µM, the “improvement in potency at PI turnover versus Eisai, rat NTR1” value (rat NTR1) is reported as “about two fold” and the half-life at 0.5 mg/mL [1] is reported as 20.8 days. For the same compound, the half-life [2] was 0.171 days, the Kd (α2-adrenergic receptors) was 58.6 µM and the “effect on apomorphine-induced climbing behavior” value [3, 7] was “long-lasting blockade of the climbing behavior”. For the same compound, the “effect on apomorphine-induced sniffing and licking behaviors” value [3, 7] was “did not influence”, the “effect on apomorphine-induced climbing behavior” value ([3]; 5 mg/kg ip) was “completely blocked” and the “ED50 blockade of apomorphine-induced climbing” value ([3]; ip, 75 minutes after NT69L, 45 minutes after apomorphine 600 μg/kg sc) was 0.016 mg/kg. The catalepsy in mice [4] was “caused no catalepsy”, the T4 level ([5]; Sprague-Dawley rats, one hour post injection, saline 2.6) was 1.8 µg/dL and the corticosterone level ([5]; Sprague-Dawley rats, one hour post injection, saline 6.1) was 24.6 µg/dL. It also gave a TSH level ([5]; Sprague-Dawley rats, one hour post injection, saline 7.65) of 0.9 mIU/L, a glucose level ([5]; Sprague-Dawley rats, one hour post injection, saline 130) of 221 mg/dL and a T4 ([5]; Zucker rats, one hour after injection, control 1.47) of 1.03 µg/dL. For the same compound, the TSH ([5]; Zucker rats, one hour after injection, control 1.9) was 0.43 mIU/L, the corticosterone ([5]; Zucker rats, one hour after injection, control 10.9) was 19.7 µg/dL and the blood glucose ([5]; Zucker rats, one hour after injection, control 140) was 310 mg/dL. The “time up to which body temperature reduction remained significant” value ([6]; 1 mg/kg intraperitoneal) was “up to 300 minutes”, the “Peak BT change” value ([6]; 1 mg/kg intraperitoneal, rats) was −5.3 °C and −5.3 @ ° C and the “body temperature lowering after the first injection” value ([6]; 1 mg/kg ip daily, day 1) was “about 4 degrees”. For the same compound, the “body temperature lowering after the second injection” value ([6]; 1 mg/kg ip daily, day 2) was 1.5 degrees, the “body temperature lowering after the third injection” value ([6]; 1 mg/kg ip daily, day 3) was “no body temperature lowering was detected” and the “reduction in body temperature on 5× challenge” value ([6]; 5 mg/kg ip after four days at 1 mg/kg ip) was “comparable to the reduction normally observed in naive rats”. The “change in body temperature” value ([6]; 30 minutes after injection) was “about −3 °C”, the “change in body temperature” value ([6]; 77 minutes after injection) was “about −4 °C” and the induction of hypothermia ([6]; intraperitoneal administration (NT64L 1 mg/kg)) was “did induce”. The “ED50 BT” value ([6]; intraperitoneal, @ 90 min) was 0.4 mg/kg, the “peak reduction in body temperature” value ([6]; intraperitoneal, dose not restated) was 5.3 °C and the “ED50 body temperature lowering” value ([6]; ip, at 90 minutes) was 0.39 mg/kg. For the same compound, the “peak reduction in body temperature (change)” value ([6]; nasal, 5 mg/kg, at 30 minutes) was −1.4 °C, the “peak reduction in body temperature (change)” value ([6]; oral, 20 mg/kg) was −0.63 °C and the “time of peak reduction in body temperature” value ([6]; oral, 20 mg/kg) was 60 min.
